PubChem BioAssay (NCI)
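Following 48 hours of exposure in 96-well plates, responses at five concentrations were used to interpolate endpoints linearly. At the TGI there is no net growth.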

How the values were obtained:
Assay in all cases: NCI anticancer screen, dose series, 48 h
SK-OV-3 ovarian = system: SK-OV-3 ovarian
KM12 colon = system: KM12 colon
SN12C renal = system: SN12C renal
A498 renal = system: A498 renal
XF 498 CNS = system: XF 498 CNS
SNB-19 CNS = system: SNB-19 CNS
CCRF-CEM leukemia = system: CCRF-CEM leukemia
OVCAR-3 ovarian = system: OVCAR-3 ovarian
U251 CNS = system: U251 CNS
OVCAR-8 ovarian = system: OVCAR-8 ovarian
UO-31 renal = system: UO-31 renal
DLD-1 colon = system: DLD-1 colon
SK-MEL-2 melanoma = system: SK-MEL-2 melanoma
HCT-15 colon = system: HCT-15 colon
SW-620 colon = system: SW-620 colon
SF-539 CNS = system: SF-539 CNS
OVCAR-4 ovarian = system: OVCAR-4 ovarian
UACC-257 melanoma = system: UACC-257 melanoma
UACC-62 melanoma = system: UACC-62 melanoma
SNB-75 CNS = system: SNB-75 CNS
IGROV1 ovarian = system: IGROV1 ovarian
CAKI-1 renal = system: CAKI-1 renal
NCI-H460 lung = system: NCI-H460 lung
HOP-18 NSCLC = system: HOP-18 NSCLC
LXFL 529 NSCLC = system: LXFL 529 NSCLC
HOP-92 NSCLC = system: HOP-92 NSCLC
M14 melanoma = system: M14 melanoma
SF-268 CNS = system: SF-268 CNS
SNB-78 CNS = system: SNB-78 CNS
SF-295 CNS = system: SF-295 CNS
OVCAR-5 ovarian = system: OVCAR-5 ovarian
MOLT-4 leukemia = system: MOLT-4 leukemia
A549 NSCLC = system: A549 NSCLC
RXF 393 renal = system: RXF 393 renal
EKVX NSCLC = system: EKVX NSCLC
HCC-2998 colon = system: HCC-2998 colon
NCI-H23 lung = system: NCI-H23 lung
MALME-3M melanoma = system: MALME-3M melanoma
HOP-62 NSCLC = system: HOP-62 NSCLC
HCT-116 colon = system: HCT-116 colon
ACHN renal = system: ACHN renal
M19-MEL melanoma = system: M19-MEL melanoma
HT29 colon = system: HT29 colon
RPMI-8226 leukemia = system: RPMI-8226 leukemia
DMS 273 small cell lung = system: DMS 273 small cell lung
HL-60(TB) leukemia = system: HL-60(TB) leukemia
TK-10 renal = system: TK-10 renal
KM20L2 colon = system: KM20L2 colon
COLO 205 colon = system: COLO 205 colon
SK-MEL-5 melanoma = system: SK-MEL-5 melanoma
LOX IMVI melanoma = system: LOX IMVI melanoma
K-562 leukemia = system: K-562 leukemia
DMS 114 small cell lung = system: DMS 114 small cell lung
786-0 renal = system: 786-0 renal
SR leukemia = system: SR leukemia
SK-MEL-28 melanoma = system: SK-MEL-28 melanoma
NCI-H522 lung = system: NCI-H522 lung

Measured: TGI

COC(=O)CC(=O)OC
not listed: SR leukemia | SK-MEL-28 melanoma | NCI-H522 lung
> 100 µM: all other assays above

CCN(CC)CCN1CCc2c([nH]c3ccccc23)C1c1cccnc1 (configuration not stated)
not listed: SK-MEL-2 melanoma | RXF 393 renal | MALME-3M melanoma | COLO 205 colon
> 100 µM: all other assays above
